Results: US5475132A, “Antifungal agents based on amides containing a phenyl group” (Rhone-Poulenc Agrochimie, priority 1988, dated 1995)

These compounds were tested on Phytophthora citrophthora (assay: Example B3: action on phytopathogenic soil fungi, growth on agar in Petri dishes). Details: 120 h, 30 ppm, agar medium, 22° C., 5 days, read-out: inhibition of the development of the fungus.
Format: cell-based

| SMILES | inhibition at 30 ppm [%] |
| --- | --- |
| CCN(CC)C(=O)c1cnc(-c2cccc(C(F)(F)F)c2)nc1-c1ccc(OC)c(OC)c1 [Compound 429] | ≥ 80 |
| COc1ccc(-c2nc(Sc3ccc(Cl)c(Cl)c3)ncc2C(=O)N2CCOCC2)cc1OC [Compound 450] | ≥ 80 |
| COc1ccc(-c2c(C(=O)N3CCOCC3)sc3c(N)cccc23)cc1OC [Compound 121] | ≥ 80 |
| CCN(CC)C(=O)c1ccc(-c2ccccc2)nc1-c1ccc(OC)c(OC)c1 [Compound 388] | ≥ 80 |
| COc1ccc(-c2c(C(=O)N(C)CCO)sc3ccccc23)cc1OC [Compound 156] | ≥ 80 |
| COc1ccc(-c2nc(-c3ccccc3)ncc2C(=O)N2CCOCC2)cc1OC [Compound 414] | ≥ 80 |
| COc1ccc(-c2nc(Oc3ccc(Br)cc3)ncc2C(=O)N2CCOCC2)cc1OC [Compound 438] | ≥ 80 |
| COc1ccc(-c2nc(-c3ccccc3)ccc2C(=O)N(C)CCOC(C)=O)cc1OC [Compound 396] | ≥ 80 |
| COc1ccc(-c2nc(Sc3cccc(Cl)c3)ncc2C(=O)N2CCOCC2)cc1OC [Compound 445] | ≥ 80 |
| CCN(C)C(=O)c1ccc(-c2ccc(F)cc2)nc1-c1ccc(OC)c(OC)c1 [Compound 350] | ≥ 80 |

Same assay, conditions: 120 h, read-out: inhibition of the development of the fungus

| SMILES | inhibition at 30 ppm [%] |
| --- | --- |
| COc1ccc(-c2c(C(=O)N3CCC(=O)CC3)sc3ccccc23)cc1OC [Compound 162] | ≥ 80 |
